From patent US6201129A, “Tricyclic derivatives and their use as anti-cancer agents” (Univ. College Cardiff Consultants, priority 1997, dated 2001) come the findings set out here.

The subject of this assay is HT1080scc2 (clone of human fibrosarcoma cell-line HT1080). Kind of assay: Cell proliferation/cytotoxicity assay, methylene blue biomass staining. The assay is classed as cell-based. Conditions: HT-1080, HT1080scc2 cells, 1×10^3 cells per well, compound added day 1, further 4 days at 37° C., methylene blue staining read at 620 nm. The protocol: Compounds of the general formula (I) have been tested against two specially developed cell lines which are clones of the human fibrosarcoma cell-line HT1080. One clone HT1080scc2, retains the transformed phenotype of the parental line, whilst the other, HT10801c, is a morphologically flat, non-tumourigenic, revertant.
Assays for cell proliferation/cytotoxity were carried out in tissue culture grade 96 well microtitre plates (Costar). Cells in log growth were added to the plates at a concentration of 1×10^3 cells per well on day 0 and serially diluted compounds were then added on day 1. Plates were then incubated at 37° C. in 5% CO2 in air for a further 4 days.
For quantitation of cell growth, the methylene blue biomass staining method was used, the test being read on a Multiscan plate reader at wavelength of 620 nm. The morphology of the cells was checked microscopically under phase-contrast immediately before the fixation and staining with methylene blue, and by ordinary light microscopy thereafter. IC50 values for active compounds were obtained using the computer programme, GS1 and dose-response slopes were also plotted.

Each structure is given as a SMILES string.

In the case of `CCOC(=O)c1[nH]c2cc3c(C(=O)OCC)c(C)[nH]c3c(C)c2c1C` [Example 1, Diethyl 1,5-dihydro-3,4,6-trimethylpyrrolo[2,3-f]indole-2,7-dicarboxylate], the IC50 – broadly, the concentration at which inhibition is half-maximal – came to 100 µM.
The value for `CCOC(=O)c1[nH]c2cc3[nH]c(C)cc3c(C)c2c1C` [Example 2, Ethyl 1,7-dihydro-3,4,6-trimethylpyrrolo[3,2-f]indole-2-carboxylate] was 3 µM.
